Read-outs that look alike come from different tables or passages of the source.
What was measured:
[1] = Non-GLP four-week toxicity/toxicokinetic study in macaques (Mannheimer Foundation Study 2010-01); type: in vivo, sub-adult male macaques; settings: for Tmax: male, macaque, plasma, macaques
Excerpt: Plasma samples for toxicokinetic analysis were collected pre-dose, and at 0.25, 1, 6, 24, and 48 hr postdose on the first day of dosing. Pre-dose, but no post-dose samples were collected on Days 7, 14, 21 and 29. […] The increases for Cmax were slightly greater than directly dose-proportional. The increases for AUC0-t were apparently substantially greater than directly dose-proportional, but the nonlinearity may be in part a reflection of the sampling schedule.

[2] = Sprague Dawley, rat, in vivo, iv
Description: In the second rat toxicity study, Charles River Study Number 20000328, CoQ10 was administered as short intravenous infusions at the rate of 1.0 mL/min three times a week for four weeks. For the toxicokinetic evaluation, three groups of nine male and nine females received 62.5, 125, and 250 mg/kg CoQ10 IV Formulation (Table 20). On Days 1 and 26, samples were collected from subgroups of three males and three females at 5 and 15 minutes, and at 1, 4, 24 and 48 hr post-dose.
4-Week Repeat-Dose Toxicology Study of CoQ10 IV Formulation In Rats: Four groups of young adult Sprague Dawley rats (n=10/sex/group) received the vehicle (PBS containing Poloxamer 188 and DMPC) or the test article at doses of 0, 62.5, 125 and 250 mg/kg by IV injection three times per week (Charles River Laboratories Study Number 20000328; Table 26). An additional 5 rats/sex were included in each group and were maintained after treatment for a 2-week recovery period. […] The vehicle was administered at the same dose volume as the high-dose group. Additionally, three groups of 9 animals/sex served as toxicokinetic (TK) animals and received the test article in the same manner as the main study groups. […] Blood samples for determination of the plasma concentrations of the test article were collected from cohorts of three TK animals per sex per dose group at 5, 15 and 60 minutes and at 4, 24 and 48 hours after dosing on Days 1 and 28 (after the last dose).

[3] = beagle, dog, in vivo, iv
Description: (§1) In the second dog toxicity study, Charles River Study Number 20000334, CoQ10 IV Formulation was administered as short intravenous infusions at the rate of 5.0 mL/min three times a week for four weeks.
(§2) An additional two dogs/sex were included in each group and maintained for a 2-week recovery after treatment. A single test article concentration of 40 mg/mL was provided for use on the study. […] Parameters evaluated included cageside observations, clinical observations, body weight, food consumption, ophthalmoscopy, electrocardiography, clinical pathology, gross pathology, organ weights, and histopathology. Blood samples for determination of the plasma concentrations of CoQ10 IV Formulation were collected pre-dose and at 5, 15, 30 and 60 minutes and at 2, 4, 8 and 24 hours post-dose on Days 1 and 26.

[4] = rats, oral; cited from earlier work
in vivo = settings: beagle, dog, iv
Description: as §1, §2

## COC1=C(OC)C(=O)C(C/C=C(\C)CC/C=C(\C)CC/C=C(\C)CC/C=C(\C)CC/C=C(\C)CC/C=C(\C)CC/C=C(\C)CC/C=C(\C)CC/C=C(\C)CCC=C(C)C)=C(C)C1=O [CoQ10, Coenzyme Q10]
[1]; macaques, 31.25, 62.5, 125 mg/kg IV, preliminary results
  Cmax and AUC0-t versus dose: increased with increasing dose
[1]; intravenous, one animal
  Tmax: 60 min
[1]; 31.25-125 mg/kg IV, first day of dosing
  Tmax: 15 min
[2]; female, 62.5 mg/kg
  AUC0-t: 1747 µg·h/mL
[2]; female, 125 mg/kg
  AUC0-t: 3859 µg·h/mL
[2]; female, 250 mg/kg
  AUC0-t: 8368 µg·h/mL
[2]; male, 62.5 mg/kg
  AUC0-t: 1953 µg·h/mL
[2]; male, 125 mg/kg
  AUC0-t: 5037 µg·h/mL
[2]; male, 250 mg/kg
  AUC0-t: 8873 µg·h/mL
[3]; female, 31.25 mg/kg
  AUC0-t: 1207 µg·h/mL
[3]; female, 62.5 mg/kg
  AUC0-t: 2735 µg·h/mL
[3]; female, 125 mg/kg
  AUC0-t: 7370 µg·h/mL
[3]; male, 31.25 mg/kg
  AUC0-t: 1038 µg·h/mL
[3]; male, 62.5 mg/kg
  AUC0-t: 2719 µg·h/mL
[3]; male, 125 mg/kg
  AUC0-t: 7151 µg·h/mL
[4]
  orally-administered CoQ10 absorbed: 2-3%
In vivo; female, 31.25 mg/kg
  AUC0-t: 1220 µg·h/mL
In vivo; female, 62.5 mg/kg
  AUC0-t: 2920 µg·h/mL
In vivo; female, 125 mg/kg
  AUC0-t: 12500 µg·h/mL
In vivo; male, 31.25 mg/kg
  AUC0-t: 1130 µg·h/mL
In vivo; male, 62.5 mg/kg
  AUC0-t: 3350 µg·h/mL
In vivo; male, 125 mg/kg
  AUC0-t: 12800 µg·h/mL

Reference: patent US11400058B2, “Intravenous formulations of coenzyme Q10 (CoQ10) and methods of use thereof” (Berg LLC, priority 2010, dated 2022)
